Earlier results on 1 substance are cited in patent US20070077283A1, “METHOD OF ENHANCING TRANSMUCOSAL DELIVERY OF THERAPEUTIC COMPOUNDS” (Nastech Pharmaceutical Company Inc., priority 2005, published 2007).

This series concerns ciliary function in epithelial cell cultures. The settings on record: Hingley et al. 1986; cited from earlier work.

On to rhamnolipid, for which the “effect of limited exposure of tracheal explants” value is reported as “ciliostasis”.
